Measurements: patent publication US7799775B2, “Pyrimidine derivatives” (ASKA Pharmaceutical Co., Ltd., priority 2004, dated 2010)
Counter-ions that a name gives are not always drawn.

Key:
[1] = system: rats under restraint stress; test: Measurement of defecation acceleration in rats under restraint stress; assay type: in vivo, rat; settings: 1 hour restraint stress, group average (Normal 1.7, Control 6.8)
Description: (5) Measurement of Defecation Acceleration in Rats under Restraint Stress […] Feed and drinking water were left for their free ingestion until the morning of the day on which the test was given. On the day of the experiment, test compounds were orally administered and positive control solution (the used compounds were dissolved in 1N-hydrochloric acid and diluted with a suitable amount of saline) was administered intraperitoneally. Five (5) minutes thereafter, under lightly anesthetized condition, the rats were placed under restraint stress, with their upper half of the bodies including the front feet immobilized with gum tape. The restraint stress loading was conducted for an hour, and the number of excrements discharged during that period was counted. […] Those compounds which were used as the positive control chemicals used in the acceleration of defecation in rats under restraint stress are identified with the following structures.

5-HT1A receptor = biological target: T1, 5-HT1A receptor (Rattus norvegicus, UniProt P19327); test: Measurement of 5-HT1A receptor agonistic action on rats (in vivo): lower lip retraction and flat body posture; settings: SD male rats, 10 mg/kg intraperitoneal; maximum of group evaluation points, 4 grades 0-3, observed 5-30 min after administration
T1 construct: from tissue; host or cells: whole animal (SD male rats), behavioural read-out
T1 sequence (P19327 1-422): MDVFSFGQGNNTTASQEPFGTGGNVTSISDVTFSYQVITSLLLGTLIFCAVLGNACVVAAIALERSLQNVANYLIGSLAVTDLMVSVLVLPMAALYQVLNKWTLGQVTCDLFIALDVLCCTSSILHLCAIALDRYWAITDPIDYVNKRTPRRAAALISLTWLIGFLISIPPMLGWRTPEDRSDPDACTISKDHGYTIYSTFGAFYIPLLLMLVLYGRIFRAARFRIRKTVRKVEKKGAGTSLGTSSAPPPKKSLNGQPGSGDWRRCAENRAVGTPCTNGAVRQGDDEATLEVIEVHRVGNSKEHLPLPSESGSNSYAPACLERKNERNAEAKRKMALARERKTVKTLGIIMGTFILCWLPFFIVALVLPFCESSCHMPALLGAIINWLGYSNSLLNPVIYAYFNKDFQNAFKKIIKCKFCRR
Description: (3) Measurement of 5-HT1A Receptor Agonistic Action on Rats (in Vivo):
Seven weeks old SD male rats were divided into 4-5 rats per group which were accustomized to the experimental environments twice. A week after the second accustomization, the rats were put into a transparent plastic case, and 10 mg/kg of a test compound (as dissolved in 1N-hydrochloric acid and diluted with suitable amount of saline) was intraperitoneally administered thereto. Immediately before the administration and 5, 10, 20 and 30 minutes after the administration, behaviors of the rats were observed as to lower lip retraction (LLP) and flat body posture (FBP). The results were evaluated in 4 grades (0: no reaction, 1: feeble reaction, 2: medium reaction, 3: maximum reaction).

5-HT3 receptor = biological target: T2, 5-HT3 receptor (Rattus norvegicus, UniProt P35563); test: Measurement of 5-HT3 receptor antagonistic action on rats (in vivo): inhibition of serotonin-induced bradycardia (BJ reflex); settings: anesthetized SD male rats, dose 1.0 mg/kg intravenous, serotonin 300 μg/kg 10 minutes later
T2 construct: from tissue; host or cells: whole animal (SD male rats), serotonin-induced bradycardia
T2 sequence (P35563 24-483): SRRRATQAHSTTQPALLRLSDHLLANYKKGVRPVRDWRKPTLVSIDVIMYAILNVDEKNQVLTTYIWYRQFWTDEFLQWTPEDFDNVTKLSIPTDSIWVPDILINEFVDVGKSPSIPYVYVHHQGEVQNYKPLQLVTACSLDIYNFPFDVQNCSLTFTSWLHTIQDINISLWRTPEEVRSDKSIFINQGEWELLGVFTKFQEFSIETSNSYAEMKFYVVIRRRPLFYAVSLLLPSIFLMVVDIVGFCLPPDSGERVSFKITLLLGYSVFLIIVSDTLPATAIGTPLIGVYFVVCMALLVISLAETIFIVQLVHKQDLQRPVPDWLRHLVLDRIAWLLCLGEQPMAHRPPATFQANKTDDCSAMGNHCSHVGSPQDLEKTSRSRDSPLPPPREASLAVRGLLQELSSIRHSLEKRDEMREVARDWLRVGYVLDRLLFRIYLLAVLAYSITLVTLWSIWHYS
Description: (4) Measurement of 5-HT3 Receptor Antagonistic Action on Rats (in Vivo)
SD male rats (weighing 270-410 g) were anesthetized by peritoneal administration of 1.25 g/kg of urethane (as dissolved in distilled water), and then catheters for measuring blood pressure and heart rate were inserted into their left carotid artery and a catheter for administration of test compound was inserted into their […]. After their blood pressure and heart rate were stabilized, 300 μg/kg of 5-hydroxytryptamine creatinine sulfate (serotonin) was rapidly intravenously administered and thereby induced transient bradycardiac reaction (BC 1) was observed. When the blood pressure and heart rate were re-stabilized after the serotonic administration, the test compounds were intravenously administered to the rats. Ten minutes thereafter, 300 μg/kg of serotonin was once again rapidly intravenously administered and thereby induced transient bradycardiac reaction (BC 2) was observed. Percent inhibition of bradycardia manifestation of each test compound, i.e., BJ reflex inhibition, can be calculated according to the following expression: […]

human 5-HT1A receptor = biological target: T3, human 5-HT1A receptor (Homo sapiens, UniProt P08908); test: Affinity measurement of the compounds to human 5-HT1A receptor (in vitro), [3H]8-OH-DPAT binding; settings: test compound 100 nmols/L; [3H]8-OH-DPAT 0.25 nmols/L; CHO cell membrane expressing human 5-HT1A receptor; read-out: Percent Inhibition (%) on Each Receptor's Binding at 10^−7M, 5-HT1A
T3 construct: purchased Packard Bioscience; host or cells: CHO cells (membrane preparation)
T3 sequence (P08908 1-422): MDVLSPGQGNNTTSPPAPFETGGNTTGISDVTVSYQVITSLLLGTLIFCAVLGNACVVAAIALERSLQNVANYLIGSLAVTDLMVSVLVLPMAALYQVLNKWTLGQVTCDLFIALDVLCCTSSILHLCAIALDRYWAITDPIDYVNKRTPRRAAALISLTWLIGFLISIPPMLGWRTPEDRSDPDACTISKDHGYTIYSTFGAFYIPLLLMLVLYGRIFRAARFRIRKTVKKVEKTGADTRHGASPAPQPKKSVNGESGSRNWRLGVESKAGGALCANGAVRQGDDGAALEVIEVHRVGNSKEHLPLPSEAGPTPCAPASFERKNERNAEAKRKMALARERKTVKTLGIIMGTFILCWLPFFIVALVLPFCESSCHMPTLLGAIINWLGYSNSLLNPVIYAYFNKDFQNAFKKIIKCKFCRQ
Outline: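 Membranes from CHO cells expressing human 5-HT1A were incubated 60 min at 27 °C with 0.25 nmol/L [3H]8-OH-DPAT and compound in Tris/MgSO4/EDTA/ascorbate buffer, pH 7.4. Bound radioactivity was collected on PEI-soaked GF/C filters and counted; percent inhibition was corrected for non-specific binding defined with 10 μmol/L 8-OH-DPAT.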

human 5-HT3 receptor = biological target: T4, human 5-HT3 receptor (Homo sapiens, UniProt P46098); test: Measurement of affinity to human 5-HT3 receptor (in vitro), [3H]BRL-43694 binding; settings: test compound 100 nmols/L; [3H]BRL-43694 0.5 nmols/L; HEK-293 cell membrane expressing human 5-HT3 receptor; read-out: Percent Inhibition (%) on Each Receptor's Binding at 10^−7M, 5-HT3
T4 construct: purchased BIOLINKS K.K; host or cells: HEK-293 cells (membrane preparation)
T4 sequence (P46098 24-478): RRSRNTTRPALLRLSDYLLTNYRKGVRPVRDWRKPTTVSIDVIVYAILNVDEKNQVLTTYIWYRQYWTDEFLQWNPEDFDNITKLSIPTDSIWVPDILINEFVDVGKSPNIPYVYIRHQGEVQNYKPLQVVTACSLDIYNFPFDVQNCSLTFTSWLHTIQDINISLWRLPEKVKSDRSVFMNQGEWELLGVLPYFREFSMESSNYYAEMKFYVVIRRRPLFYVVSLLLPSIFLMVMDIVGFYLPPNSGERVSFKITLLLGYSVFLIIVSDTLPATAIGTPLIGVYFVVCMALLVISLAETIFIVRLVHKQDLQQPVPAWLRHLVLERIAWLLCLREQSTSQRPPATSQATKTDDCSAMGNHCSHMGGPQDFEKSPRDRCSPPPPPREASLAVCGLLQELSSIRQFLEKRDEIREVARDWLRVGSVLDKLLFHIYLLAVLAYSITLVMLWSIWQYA
Outline: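 Membranes from HEK-293 cells expressing the receptor were incubated with 0.5 nmol/L radioligand and compound for 60 min at 25 °C in Tris/MgCl2/EDTA buffer, pH 7.5. Bound radioactivity was collected by filtration and counted. Percent inhibition was corrected for non-specific binding defined with 10 μmol/L tropisetron; compounds were tested at 100 nmol/L.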

[2] = 1 mg/kg intraperitoneal administration

| Structure (SMILES) | inhibition at 0.1 µM (human 5-HT1A receptor) | inhibition at 0.1 µM (human 5-HT3 receptor) | further results |
| --- | --- | --- | --- |
| CN1[C@@H]2CCC[C@H]1C[C@@H](NC(=O)c1nn(C)c3ccccc13)C2.Cl [granisetron, reference compound] |  |  | Number of excrements ([1]; 0.3 mg/kg intraperitoneal administration): 4.3 |
| COc1ccc2ccnc(N3CCNCC3)c2c1 [Production Example 34, 7-methoxy-1-piperazin-1-ylisoquinoline] |  |  | 5-HT1A Receptor Agonistic Action on Rats, FBP (5-HT1A receptor): 2.8; 5-HT1A Receptor Agonistic Action on Rats, LLR (5-HT1A receptor): 3.0; BC Inhibition (%) (5-HT3 receptor): 92.0% |
| O=C(O)CC(O)(CC(=O)O)C(=O)O.O=C1[C@@H]2[C@H]3CC[C@H](C3)[C@@H]2C(=O)N1CCCCN1CCN(c2ncccn2)CC1 [tandospirone, reference compound] |  |  | Number of excrements [1, 2]: 5.7; Number of excrements ([1]; 3 mg/kg intraperitoneal administration): 4.3; Number of excrements ([1]; 10 mg/kg intraperitoneal administration): 3.8 |
| Cc1nccn1C[C@H]1CCc2c(c3cccc4c3n2CCC4)C1=O [cilansetron, reference compound] |  |  | Number of excrements [1, 2]: 4.0 |
| CN1CCN(c2nccc3ccc(Cl)cc23)CC1 [Production Example 50, 7-chloro-1-(4-methylpiperazin-1-yl)isoquinoline] |  |  | BC Inhibition (%) (5-HT3 receptor): 86.8% |
| Oc1ccc2ccnc(N3CCNCC3)c2c1 [Production Example 95, 7-hydroxy-1-piperazin-1-ylisoquinoline hydrochloride] |  |  | BC Inhibition (%) (5-HT3 receptor): 96.0% |
| Cl.O=C1CC2(CCCC2)CC(=O)N1CCCCN1CCN(c2ncccn2)CC1 [buspirone, reference compound] |  |  | Number of excrements [1, 2]: 4.3 |
| CC1CCc2nc(CCCCN3CCN(c4ccc5ccccc5n4)CC3)n(N)c(=O)c2C1 (centres unmarked) [Example 4-60, 3-amino-6-methyl-2-[4-(4-quinolin-2-ylpiperazin-1-yl)butyl]-5,6,7,8-tetrahydro-3H-quinazolin-4-one] | 96.9% | 91.5% |  |
| c1ccc2c(N3CCNCC3)nccc2c1 [Production Example 35, 1-piperazin-1-ylisoquinoline] |  |  | BC Inhibition (%) (5-HT3 receptor): 94.6% |
| Cc1ccc2ccnc(N3CCNCC3)c2c1 [Production Example 46, 7-methyl-1-piperazin-1-ylisoquinoline] |  |  | BC Inhibition (%) (5-HT3 receptor): 94.4% |
| c1cc2sccc2c(N2CCN3CCCCC3C2)n1 (centres unmarked) [Production Example 121, 4-octahydropyrido[1,2-a]pyrazin-2-ylthieno[3,2-c]pyridine] | 69.3% | 85.6% |  |
| CCN1CCN(c2nccc3ccccc23)CC1 [Production Example 37, 1-(4-ethylpiperazin-1-yl)isoquinoline] | 57.3% | 70.2% |  |
| COc1ccc2c(C)cnc(N3CCNCC3)c2c1 [Production Example 28, 7-methoxy-4-methyl-1-piperazin-1-ylisoquinoline] | 23.9% | 92.5% |  |
| CSc1ccc2ccnc(N3CCN4CCC[C@H]4C3)c2c1 [Production Example 82] | 99.3% | 90.3% |  |
| Cn1c(SCCCN2CCN(c3ccc4ccccc4n3)CC2)nc2c(c1=O)CCCC2 [Example 7-27] | 87% | 90.2% |  |
| Clc1ccc2ccnc(N3CCN4CCC[C@@H]4C3)c2c1 [Production Example 76, 7-chloro-1-((8aR)-octahydropyrrolo[1,2-a]pyrazin-2-yl)isoquinoline] | 96.6% | 94.4% |  |
| Oc1ccc2ccnc(N3CCN4CCC[C@H]4C3)c2c1 [Production Example 85] | 99.9% | 98.9% |  |
| COc1cc2nc(CCCCN3CCN(c4ccc5ccccc5n4)CC3)n(C)c(=O)c2cc1OC [Example 7-22, 6,7-dimethoxy-3-methyl-2-[4-(4-quinolin-2-ylpiperazin-1-yl)butyl]-3H-quinazolin-4-one] | 82.4% | 5.3% |  |
| O[C@@H]1C[C@H]2CN(c3nccc4occc34)CCN2C1 [Production Example 114, 4-((7R,8aS)-7-hydroxyoctahydropyrrolo[1,2-a]pyrazin-2-yl)furo[3,2-c]-pyridine] | 16.7% | 91% |  |
| Cc1cc(N2CCN(CCCSc3nc4sc5c(c4c(=O)[nH]3)CCNC5)CC2)nc2ccccc12 [Example 2-20, 2-[3-[4-(4-methylquinolin-2-yl)piperazin-1-yl]propylthio]-3,4,5,6,7,8-hexahydro-4-oxo-9-thia-1,3,7-triaza-9H-fluorene trihydrochloride] | 81.6% | 52.8% |  |
